Measured values reported in patent publication US10266525B2, “Processes for preparing 2-(6-(1H-indol-4-yl)-1H-indazol-4-yl)-5-((4-isopropylpiperazin-1-yl)methyl)oxazole” (GlaxoSmithKline Intellectual Property Development Limited, priority 2015, dated 2019).

Tests used:
hygroscopicity = assay type: physicochemical
[1] = solubility in simulated lung fluid; assay type: physicochemical

CC(C)N1CCN(Cc2cnc(-c3cc(-c4cccc5[nH]ccc45)cc4[nH]ncc34)o2)CC1.O=C(O)c1ccccc1 [benzoate salt of Compound A, 2-(6-(1H-Indol-4-yl)-1H-indazol-4-yl)-5-((4-isopropylpiperazin-1-yl)methyl)oxazole benzoate]
hygroscopicity (hygroscopicity): suitable | solubility in simulated lung fluid [1]: suitable
